Data on 1 molecule can be found in publication PMC10011554, “BET inhibitor trotabresib in heavily pretreated patients with solid tumors and diffuse large B-cell lymphomas” (Nature Communications, 2023).

Structures are written as SMILES. Like-named read-outs stand apart in the source and are kept apart here.

The term Tmax denotes the time at which the peak concentration occurs. What is called half-life is the time needed for the level to fall by half in the phase considered.

Data set [1] is described as follows: Clinical plasma and CSF pharmacokinetics, part A. Particulars: human. Format: in vivo. The protocol: Protocol CC-90010-ST-001 Celgene Corporation
Following oral administration of CC-90010, geometric mean peak exposure to CC-90010, based on Cmax, increased with dose on Day 1 (single dose) and after last dose (repeated dosing), in a manner approximately proportional with dose. Across all dose levels and both sampling occasions, Cmax was observed a few hours after dosing, with median tmax ranging from 1 to 2 hours postdose. The terminal elimination half-life, where estimated, was generally similar across the dose schedules, ranging from approximately 40 to 70 hours, after repeated dosing of […]
across the dose levels, after repeated dosing of CC-90010. There was evidence of accumulation after repeated dosing of CC-90010 for all dose schedules and dose levels, with accumulation […]
Between-subject variability across the dose levels ranged from 22.0% to 91.7% on Day 1 based […]
Cerebrospinal fluid samples were collected for one subject, who had quantifiable cerebrospinal fluid concentrations of CC-90010, with an average time matched CSF/plasma ratio of 6.6%.
1.4. Safety Monitoring Plan […]
(1 picture or pasted object on this page, not shown here)
The provisional CC-90010 dose levels (total doses within on cycle) are: 180 mg in Schedule 1, […]
220 mg in Schedule 4. It is however possible for some doses to be skipped or additional dose levels to be added during the course of the study, based on the emerging safety information.
After each cohort the posterior distributions for the probabilities of a DLT rates at different dose levels are obtained. The results of this analysis are summarized in terms of the estimated probabilities that the true rate of DLT at each dose-level will have of lying in each of the […]
• [0.16, 0.33) targeted toxicity
• [0.33, 1.00] excessive toxicity.
Following the principle of escalation with EWOC, after each cohort of subjects the recommended dose is the one with the highest posterior probability of the DLT rate falling in the target interval [16%, 33%) among the doses fulfilling EWOC, ie, it is unlikely (<25% posterior probability) that the DLT rate at the dose falls in the excessive toxicity interval.
Note that the dose that maximizes the posterior probability of targeted toxicity is the best estimate of the MTD, but it may not be an admissible dose according to the overdose criterion if the amount of data is insufficient. […]
Plasma PK parameters such as AUC0-24, C max, Tmax, t1/2, CL/F, and Vz/F of CC-90010 will be calculated by the noncompartmental analysis method from the plasma concentration-time profiles of CC-90010. Additional PK parameters including CSF to plasma concentration ratio of CC-90010, may be calculated, if data permits. […]

The subject of data set [2] is MYC gene expression in Raji Burkitt's lymphoma cells. Details: method as in Investigator's Brochure. Particulars: ref Investigator's Brochure, read-out: mean IC50, inhibition of MYC gene expression; cited from earlier work.
The test system of a further data set is SU-DHL-2 (ABC DLBCL). Details: method as in Report CC-90010-Pharm-1018. As to conditions: SU DHL 2, Experiment 2, ref Report CC-90010-Pharm-1018; read-out: absolute IC50, proliferation; cited from earlier work.
Another data set relates to OCI-LY-3 (ABC DLBCL). Details: method as in Report CC-90010-Pharm-1018. As to conditions: OCI-LY-3, Experiment 1, ref Report CC-90010-Pharm-1018; read-out: absolute IC50, proliferation; cited from earlier work.
The subject of the next data set is KARPAS-422 (GCB DLBCL). Details: method as in Report CC-90010-Pharm-1018. As to conditions: KARPAS-422, Experiment 1, ref Report CC-90010-Pharm-1018; read-out: absolute IC50, proliferation; cited from earlier work.
Another data set deals with OCI-LY-10 (ABC DLBCL). Further details: method as in Report CC-90010-Pharm-1018. As to conditions: OCI-LY-10, Table 2, ref Report CC-90010-Pharm-1018; read-out: absolute IC50, proliferation; cited from earlier work.
Another data set concerns WSU-DLCL2 (DOX-R). Further details: method as in Report CC-90010-Pharm-1018. As to conditions: Table 2, ref Report CC-90010-Pharm-1018, read-out: absolute IC50, proliferation; cited from earlier work.
On the set-up of data set [3]: method as in Investigator's Brochure. Particulars: 2 hours postdose, ref Investigator's Brochure, cited from earlier work.
Details of data set [4]: method as in Unpublished data from Celgene Corporation. As to conditions: after final dose, ref Unpublished data from Celgene Corporation, cited from earlier work.
Details of data set [5]: method as in Investigator's Brochure. As to conditions: ref Investigator's Brochure, cited from earlier work.
The test system of a further data set is CYP2D6. Details: method as in Investigator's Brochure. As to conditions: CYP2D6, ref Investigator's Brochure; read-out: IC50, direct inhibition; cited from earlier work.
Data set [6] has as its system CYP1A2, CYP2B6 and CYP3A4 mRNA. Further details: method as in Investigator's Brochure. As to conditions: 0.01 to 10 µM, up to 3 days, CYP1A2, CYP2B6, CYP3A4, ref Investigator's Brochure; cited from earlier work.
The next data set deals with OAT3. Further details: method as in Investigator's Brochure. As to conditions: OAT3, 30 µM, ref Investigator's Brochure; cited from earlier work.

For `Cn1cc(-c2cc(S(C)(=O)=O)ccc2OCC2CC2)c2ccccc2c1=O` [trotabresib], in [1] (CSF, oral, one subject, read-out: average time matched CSF/plasma ratio), the Kp was determined as 0.066. Also, the Tmax in data set [1] (in vivo, part A, across all dose levels, Day 1 and last dose, read-out: median tmax) fell in the range of 1 to 2 h. For the same molecule, the Vd/F in data set [1] (in vivo, part A, across dose levels, after repeated dosing, read-out: Vss/F) lay within 134 to 553 L. Further, the half-life in data set [1] (in vivo, part A, across dose schedules, after repeated dosing, read-out: terminal elimination half-life) was 40 to 70 h. In addition, the IC50 in data set [2] was 60 nM; in the data set with SU-DHL-2 (ABC DLBCL) it was 100 nM; with OCI-LY-3 (ABC DLBCL) it was 510 nM; with KARPAS-422 (GCB DLBCL), 320 nM; in the data set on OCI-LY-10 (ABC DLBCL), 418 nM; in the data set on WSU-DLCL2 (DOX-R) it was ~360 nM. The IC50 in the data set on CYP2D6 was ≥ 13900 nM. In addition, the maximally-measured tumor level in data set [3] (COH70, 2 mg/kg) is 1.3 ± 0.3 µM; in data set [3] (COH70, 10 mg/kg) it was 6.7 ± 1.7 µM. Moreover, the figures for the “AUC0-24hr, steady state” value in data set [4] (12.5 mg/kg) and in data set [4] (16 mg/kg) were 12,003 ng·hr/mL and 15,174 ng·hr/mL, respectively. The “accumulation after repeat dosing” value in data set [5] (rats, toxicokinetics) is listed as “no accumulation in rats”. In data set [5], the “clearance in male vs female rats” value is “approximately 2 fold”. For the same molecule, the “increase in mRNA over vehicle control” value in [6] is reported as < 2 fold. In addition, the “inhibition of mediated transport” value in the data set with OAT3 is given as 53.6%.
